Activity calls are given as the source filed them. The calls are words filed in the database; no cut-off is given here.
Test system: B16-F10
Assay: Inhibition of alpha-MSH-stimulated melanogenesis in mouse B16F10 cells assessed as melanin content at 10 uM measured after 48 hrs relative to control
Type: functional
Details: B16-F10, 48 h

Compound | inhibition at 10 µM
O=C(c1ccc([N+](=O)[O-])cc1[N+](=O)[O-])N1CCN(Cc2ccc(F)cc2)CC1 | 22.8%

Molecular target: T1, Tyrosinase (Agaricus bisporus) (UniProt O42713)
T1 sequence (whole entry): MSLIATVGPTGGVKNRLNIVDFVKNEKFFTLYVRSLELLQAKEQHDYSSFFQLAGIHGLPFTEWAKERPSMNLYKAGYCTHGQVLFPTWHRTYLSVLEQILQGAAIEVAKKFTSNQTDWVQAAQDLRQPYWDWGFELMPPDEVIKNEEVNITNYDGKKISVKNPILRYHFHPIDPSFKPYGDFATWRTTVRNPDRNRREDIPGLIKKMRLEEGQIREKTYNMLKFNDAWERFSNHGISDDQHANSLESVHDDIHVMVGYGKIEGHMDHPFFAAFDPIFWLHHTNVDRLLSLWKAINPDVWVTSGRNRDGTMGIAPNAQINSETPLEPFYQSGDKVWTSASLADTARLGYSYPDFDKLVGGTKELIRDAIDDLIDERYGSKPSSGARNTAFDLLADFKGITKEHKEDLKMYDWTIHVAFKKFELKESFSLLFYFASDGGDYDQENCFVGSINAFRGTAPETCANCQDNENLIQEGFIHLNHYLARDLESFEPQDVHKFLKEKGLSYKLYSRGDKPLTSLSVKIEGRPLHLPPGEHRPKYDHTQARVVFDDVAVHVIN
Assay: Potency index, ratio of kojic acid IC50 to compound IC50 for inhibition of mushroom tyrosinase using L-DOPA as substrate
Details: not given

Compound | Ratio IC50
O=C(c1ccc([N+](=O)[O-])cc1[N+](=O)[O-])N1CCN(Cc2ccc(F)cc2)CC1 | 20

Molecular target: T1, Tyrosinase (Agaricus bisporus)
Assay: Competitive inhibition of mushroom tyrosinase assessed as Vmax for substrate at 0.48 to 1.92 uM using varying levels of L-DOPA as substrate by Lineweaver-Burk plot analysis
Details: not given

Compound | inhibition
O=C(c1ccc([N+](=O)[O-])cc1[N+](=O)[O-])N1CCN(Cc2ccc(F)cc2)CC1 | Active

Molecular target: T2, Tyrosinase (Agaricus bisporus, UniProt O42713)
T2 sequence (O42713 whole entry): T1 sequence (whole entry)
Assay: Inhibition of mushroom tyrosinase assessed as reduction in dopachrome production using L-DOPA as substrate after 5 mins by spectrophotometric analysis
Details: not given

Compound | IC50
O=C(c1ccccc1Br)N1CCN(Cc2ccc(F)cc2)CC1 | 2030 nM
Nc1ccccc1C(=O)N1CCN(Cc2ccc(F)cc2)CC1 | 10900 nM
O=C(c1ccc(O)cc1O)N1CCN(Cc2ccc(F)cc2)CC1 | 1490 nM
O=C(c1ccccc1Cl)N1CCN(Cc2ccc(F)cc2)CC1 | 3120 nM
COc1ccc(C(=O)N2CCN(Cc3ccc(F)cc3)CC2)c(OC)c1 | 1400 nM
O=C(c1ccc([N+](=O)[O-])cc1[N+](=O)[O-])N1CCN(Cc2ccc(F)cc2)CC1 | 960 nM
O=C(c1cccc(C(F)(F)F)c1)N1CCN(Cc2ccc(F)cc2)CC1 | 8430 nM
Nc1ccc(C(=O)N2CCN(Cc3ccc(F)cc3)CC2)cc1 | 14700 nM
O=C(c1cccc(Cl)c1)N1CCN(Cc2ccc(F)cc2)CC1 | 5300 nM
O=C(c1ccc(F)cc1F)N1CCN(Cc2ccc(F)cc2)CC1 | 1910 nM
O=C(c1ccc(Cl)cc1Cl)N1CCN(Cc2ccc(F)cc2)CC1 | 790 nM
O=C(c1ccc(C(F)(F)F)cc1)N1CCN(Cc2ccc(F)cc2)CC1 | 3380 nM
O=C(c1cccc([N+](=O)[O-])c1)N1CCN(Cc2ccc(F)cc2)CC1 | 3600 nM
Cc1ccc(C(=O)N2CCN(Cc3ccc(F)cc3)CC2)c(C)c1 | 3430 nM
O=C(c1ccc([N+](=O)[O-])cc1)N1CCN(Cc2ccc(F)cc2)CC1 | 2050 nM
O=C(c1ccc(Br)cc1Br)N1CCN(Cc2ccc(F)cc2)CC1 | 1050 nM
O=C(c1ccc(C(F)(F)F)cc1C(F)(F)F)N1CCN(Cc2ccc(F)cc2)CC1 | 1630 nM
O=C(c1ccccc1C(F)(F)F)N1CCN(Cc2ccc(F)cc2)CC1 | 480 nM
Nc1cccc(C(=O)N2CCN(Cc3ccc(F)cc3)CC2)c1 | 3810 nM
O=C(c1ccc(Br)cc1)N1CCN(Cc2ccc(F)cc2)CC1 | 4610 nM
O=C(c1ccc(Cl)cc1)N1CCN(Cc2ccc(F)cc2)CC1 | 3510 nM
O=C(c1ccccc1[N+](=O)[O-])N1CCN(Cc2ccc(F)cc2)CC1 | 870 nM
O=C(c1cccc(Br)c1)N1CCN(Cc2ccc(F)cc2)CC1 | 2400 nM
Nc1ccc(C(=O)N2CCN(Cc3ccc(F)cc3)CC2)c(N)c1 | 3670 nM

Molecular target: T1, Tyrosinase (Agaricus bisporus)
Assay: Competitive inhibition of mushroom tyrosinase assessed as increase in Km for substrate at 0.48 to 1.92 uM using varying levels of L-DOPA as substrate by Lineweaver-Burk plot analysis
Details: not given

Compound | inhibition
O=C(c1ccc([N+](=O)[O-])cc1[N+](=O)[O-])N1CCN(Cc2ccc(F)cc2)CC1 | Active

Source: ChEMBL document CHEMBL4359819, “Exploiting the 1-(4-fluorobenzyl)piperazine fragment for the development of novel tyrosinase inhibitors as anti-melanogenic agents: Design, synthesis, structural insights and biological profile” (Eur J Med Chem, 2019)
